What was measured:
[1] = tested on: KG1 (acute myelogenous leukemia) and HL60 (Human promyelocytic leukemia cells) cell lines; assay: Cell viability of AML cell lines (MTT / WST-1 assay); assay type: cell-based; details: for cell viability of KG1 and HL60 cell lines as compared to untreated control cells: WIN-55 0.5-50 uM, JWH-133 0.05-1 mM; for concentration from which the cell viability decrease occurs with statistically significant data: FIG. 12 / FIG. 13
Description: Human acute myeloid leukemia cell line KG-1 and human acute promyelocytic leukemia cell line HL60 (American Type Culture Collection) were cultured RPMI 1640 medium (Gibco™, Invitrogen, Barcelona, Spain) with 2 mM L-glutamine, 100 IU/m1 penicillin and 100 ug/ml streptomycin (all from Sigma-Aldrich, St. Louis, Mo., USA), and supplemented with 10% (HL60 cell line) or 20% (KG1 cell line and human primary cells) fetal bovine serum [(FBS), [Thermo Fisher Scientific (Waltham, Mass., USA)] in a humidified atmosphere of CO2/air (5%/95%).
The cannabinoid agonists WIN-55,212-2 mesylate ((R)-(+)-[2,3-dihydro-5-methyl-3-(4-morpholinylmethyl)-pyrrolo-[1,2,3]-1,4-benzoxazin-6-yl]-1-naphthalenylmethanone mesylate) and JWH-133 ((6aR,10aR)-3-(1,1-Dimethylbutyl)-6a,7,10,10a-tetrahydro-6,6,9-trimethyl-6H-dibenzo [b,d] pyran) were purchased from Tocris Bioscience (Bristol, UK) and they was added in the indicated concentrations to culture medium for different incubation periods. Control cells were cultured with the relevant amounts of DMSO.
Cells lines, CD34+ cells and blast were cultured in 96-well plates (5×10e5 cells per well) with the addition of the indicated concentrations of WIN 55,212-2 or JWH-133 in DMSO or with the solvent alone in triplicate. Also we add myoricin together the cannabinoid WIN-55 to see if this effect reversed. Cell viability was determined by the WST-1 [2-(4-lodophenyl)-3-(4-nitrophenyl)-5-(2,4-disulfophenyl)-2H-tetrazolium] assay as per the manufacturer's instructions (Dojindo Molecular Technologies). Optical densities were measured at 450 nm using a plate reader Multiskan™ Go Microplate (Thermo Fisher Scientific, Waltham, Mass., USA).
(§1) Firstly, we assessed the effect of cannabinoids WIN-55 and JWH-133 on cell viability. To this end, the cells were treated with increasing concentrations of cannabinoids, WIN-55 (0.5-50 uM) and JWH-133 (0.05-1 mM), for 18 and 48, and viability was analyzed by MTT assays.

[2] = tested on: MM cell lines MM1.S, MM1.R, RPMI-8226 (RPMI) and U266; assay: Cell viability of MM cell lines (MTT / WST-8 assay); assay type: cell-based, human; details: 18 h; for cell viability of all MM cell lines tested as compared to untreated control cells: WIN-55 0.5-50 uM, JWH-133 0.05-1 mM
Description: Human multiple myeloma cell lines MM1.S, MM1.R, RPMI-8226 (RPMI) and U266 were purchased from American Type Culture Collection [(ATCC), LGC Standards, Manassas, USA]. Human primary cells were obtained from MM patients' bone marrow (BM) and healthy donors' peripheral blood (PB). PB samples were collected from buffy coats and leukapheresis products, previously mobilized with granulocyte colony stimulating factor (G-CSF). Hematopoietic progenitor cells (CD34+) were isolated from leukaphesesis samples, and B (CD19+) and T (CD3+) lymphocytes from buffy coats by positive immunomagnetic separation in the AutoMACS pro separator (Miltenyi Biotec, Bergisch Gladbach, Germany). For this purpose CD34-, CD19- and CD3-MACS microbead Human Kit (Miltenyi Biotec, Bergisch Gladbach, Germany). The purity of all isolated cells was higher than 95% in all cases. BM samples were obtained from five MM patients. In all cases, BM plasma cell infiltration was greater than 30%. The different cell subpopuplations from MM patients BM were not separated, but they were identified by flow cytometry using a suitable combination of antibodies: anti-CD64-FITC, anti-CD34-PE, anti-CD56-APC, anti-CD38-APC-H7, and anti-CD45-Pacific Blue (BD Biosciences, San Jose, Calif.).
Except if otherwise indicated, for the viability assays primary cells were incubated 18 hours, with vehicle (with <0.15% DMSO) or cannabinoid. Meanwhile, the time course assays cells were performed at 0, 2, 6, 18 and 24 h. For the analysis of SPT activity, cells were co-incubated for the first 6 hours with the SPT inhibitor, myriocin, and the cannabinoid, WIN-55 or JWH-133.
The working concentrations of cannabinoids were determined by dose-response curves (data not shown) and selected within the linear range between observed safe and hazardous levels. […]
Cell viability of cell lines and CD34+, CD19+ and CD3+ cells was measured using the Cell Counting Kit-8 (Dojindo Molecular Technologies, Gaithersburg, Md.). This assay is based on the reduction of salt WST-8 by a mitochondrial dehydrogenase in viable cells, resulting in a colored formazan product that can be measured spectrometrically at 450 nm. […] After treatment, 10 ul salt WST-8 [2-(4-lodophenyl)-3-(4-nitrophenyl)-5-(2,4-disulfophenyl)-2H-tetrazolium] was added to each well and incubated for an additional 2 h at 37° C., and then the absorbance of generated formazan was measured in a plate reader Multiskan™ Go Microplate (Thermo Fisher Scientific, Waltham, Mass., USA).
as §1, with “18, 48” for “18”, “96 hours,” for “48,”, “assays and flow cytometry. […]” for “assays.”

HL60 cells = assay: Western blot of ER-stress regulator proteins in HL60 cells; assay type: cell-based, human; details: HL60, WIN-55 50 uM
Description: FIG. 19. […] Expression analysis by Western blot of regulator proteins of ER-stress in HL60 cells treated with WIN-55 50 uM.
Extracted proteins (15-25 ug/well) were separated by sodium dodecyl sulfate-polyacrylamide gel electrophoresis (SDS/PAGE) in pre-cast polyacrylamide gels AnykD (Bio-Rad Laboratories, Hercules, Calif., USA) under reducing and denaturing conditions. Electrophoretic run was performed at a constant current of 15 mA per gel in a Mini-Protean® Tetra Cell (Bio-Rad Laboratories) and were electrophoretically transferred onto PVDF membranes using Trans-Blot® Turbo™ System (Bio-Rad Laboratories). Blocking was performed with 2% bovine serum albumin [(BSA), Santa Cruz Biotechnology] in Tween-Tris buffer saline (TTBS). Membranes were incubated overnight at 4° C. with corresponding primary antibody in TTBS.

B-cells (CD19+) = assay: Cell viability of B-cells (MTT); assay type: cell-based, human

Row | SMILES | most sensitive AML cell line ([1]; 18 h) | cell viability of KG1 and HL60 cell lines as compared to untreated control cells ([1]; 18 h) | concentration from which the cell viability decrease occurs with statistically significant data [1] [µM] | sensitivity pattern of the MM cell lines [2] | cell viability of all MM cell lines tested as compared to untreated control cells [2] | ER-stress in AML cells (HL60 cells) | viability of B-cells (B-cells (CD19+))
1 | CS(=O)(=O)O.Cc1c(C(=O)c2cccc3ccccc23)c2cccc3c2n1[C@H](CN1CCOCC1)CO3 [WIN-55, (R)-(+)-[2,3-dihydro-5-methyl-3-(4-morpholinylmethyl)-pyrrolo-[1,2,3]-1,4-benzoxazin-6-yl]-1-naphthalenylmethanone mesylate] | HL60 was the most sensitive | significantly reduced | ≥ 500 | MM1R and RPMI were the most sensitive | significantly reduced | increase the ER-stress | decreased viability
2 | CCCC(C)(C)c1ccc2c(c1)OC(C)(C)[C@@H]1CC=C(C)C[C@@H]21 [JWH-133, (6aR,10aR)-3-(1,1-Dimethylbutyl)-6a,7,10,10a-tetrahydro-6,6,9-trimethyl-6H-dibenzo [b,d] pyran] | – | significantly reduced | ≥ 500 | decreasing from MM1.R, RPMI, MM1.S to U266 | significantly reduced | – | decreased viability

Source: patent US20180353461A1, “USE OF CANNABINOIDS AS CERAMIDE-GENERATING ANTICANCER AGENTS IN TUMORS OF THE HEMATOPOIETIC AND LYMPHOID TISSUES” (priority 2014, published 2018)
